The values below come from US6117840A, “CS-1 peptidomimetics, compositions and methods of using the same” (Cytel Corporation, priority 1997, dated 2000).

For one test, the target named is T1, VLA-4 (Homo sapiens, UniProt P05556+P13612).
T1 construct: host or cells: Jurkat (human T lymphoblastic line)
Type of test: cell-based. Particulars: for RELATIVE POTENCY (inhibition of VLA-4 binding CS-1): relative to standard peptide SEQ ID NO:3 (=1), normalized IC50, about one-tenth or less of SEQ ID NO:3 assigned zero. In short, it runs like this: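 ⁵¹Cr-labelled Jurkat cells were preincubated with peptide for 30 min at ~22 °C, then allowed to adhere 30 min at 37 °C to wells coated with CS1 peptide or CS1-OVA. After washing, bound cells were SDS-lysed and counted. IC50 is the concentration halving cell binding.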

Another test relates to asthmatic sheep. Description: Treatment of asthmatic sheep (Ascaris suum antigen). The test is classed as in vivo. Particulars: for PC400, carbacol dosage to increase SRL 4-fold, 24 hours after challenge: pre-challenge values about 20-23 BU. The procedure:
Six asthmatic sheep were treated in a double blind cross-over study by Dr. William M. Abraham of the Department of Research, Mount Sinai Medical Center, 4300 Alton Road, Miami Beach, Fla. 33140. […] This study was carried out generally as described in Abraham et al., J. Clin. Invest., 93:776-787 (1994).
The inhibitor peptide used here was N--phenylacetyl--Leu--Asp--Phe--D--Pro--NH2, with a control peptide that comprised the previously described peptide having the same residues in a scrambled sequence. The vehicle for the nebulized peptides was phosphate-buffered saline. The peptides were administered at a dose of 1 mg/kg each, twice a day for three days prior to challenge, as well as 0.5 hours prior to and four hours post challenge on day 4. Because this was a crossover study, each animal received one or the other treatment, followed by a rest and then the other treatment. Each animal therefore served as its own control.

Like-named read-outs stand apart in the source and are kept apart here. Square brackets hold non-standard residues; d marks the D form. Peptide text beside a SMILES is read from it. * marks the point of attachment. PhAc = O=C(Cc1ccccc1)*

T1 sequence (P13612 34-1032): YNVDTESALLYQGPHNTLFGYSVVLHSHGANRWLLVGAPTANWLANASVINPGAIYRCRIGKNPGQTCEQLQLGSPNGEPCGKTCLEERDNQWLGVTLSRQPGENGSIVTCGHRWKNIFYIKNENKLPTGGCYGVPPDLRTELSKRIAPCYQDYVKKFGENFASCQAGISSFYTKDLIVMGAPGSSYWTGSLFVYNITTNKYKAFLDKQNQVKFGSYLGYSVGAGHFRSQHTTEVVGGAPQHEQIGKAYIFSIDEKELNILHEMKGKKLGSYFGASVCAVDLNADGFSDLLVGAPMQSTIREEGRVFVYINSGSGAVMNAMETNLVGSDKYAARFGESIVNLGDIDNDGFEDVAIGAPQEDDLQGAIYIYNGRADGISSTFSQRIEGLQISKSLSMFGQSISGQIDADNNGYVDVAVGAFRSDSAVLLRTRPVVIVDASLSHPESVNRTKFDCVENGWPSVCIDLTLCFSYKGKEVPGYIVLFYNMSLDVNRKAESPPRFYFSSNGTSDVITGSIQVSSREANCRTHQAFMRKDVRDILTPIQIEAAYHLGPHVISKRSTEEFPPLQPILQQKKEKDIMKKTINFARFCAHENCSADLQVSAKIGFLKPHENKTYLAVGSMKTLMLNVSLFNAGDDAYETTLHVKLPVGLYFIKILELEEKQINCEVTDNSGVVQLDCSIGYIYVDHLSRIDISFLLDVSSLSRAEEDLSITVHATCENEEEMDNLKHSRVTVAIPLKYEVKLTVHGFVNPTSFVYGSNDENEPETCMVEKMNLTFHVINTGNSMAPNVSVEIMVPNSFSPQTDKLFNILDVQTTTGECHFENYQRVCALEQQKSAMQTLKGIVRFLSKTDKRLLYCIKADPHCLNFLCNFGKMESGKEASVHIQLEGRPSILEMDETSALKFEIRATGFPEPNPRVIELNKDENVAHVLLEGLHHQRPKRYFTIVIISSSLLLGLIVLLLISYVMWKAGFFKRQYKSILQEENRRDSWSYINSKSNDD
T1 sequence (P05556 21-798): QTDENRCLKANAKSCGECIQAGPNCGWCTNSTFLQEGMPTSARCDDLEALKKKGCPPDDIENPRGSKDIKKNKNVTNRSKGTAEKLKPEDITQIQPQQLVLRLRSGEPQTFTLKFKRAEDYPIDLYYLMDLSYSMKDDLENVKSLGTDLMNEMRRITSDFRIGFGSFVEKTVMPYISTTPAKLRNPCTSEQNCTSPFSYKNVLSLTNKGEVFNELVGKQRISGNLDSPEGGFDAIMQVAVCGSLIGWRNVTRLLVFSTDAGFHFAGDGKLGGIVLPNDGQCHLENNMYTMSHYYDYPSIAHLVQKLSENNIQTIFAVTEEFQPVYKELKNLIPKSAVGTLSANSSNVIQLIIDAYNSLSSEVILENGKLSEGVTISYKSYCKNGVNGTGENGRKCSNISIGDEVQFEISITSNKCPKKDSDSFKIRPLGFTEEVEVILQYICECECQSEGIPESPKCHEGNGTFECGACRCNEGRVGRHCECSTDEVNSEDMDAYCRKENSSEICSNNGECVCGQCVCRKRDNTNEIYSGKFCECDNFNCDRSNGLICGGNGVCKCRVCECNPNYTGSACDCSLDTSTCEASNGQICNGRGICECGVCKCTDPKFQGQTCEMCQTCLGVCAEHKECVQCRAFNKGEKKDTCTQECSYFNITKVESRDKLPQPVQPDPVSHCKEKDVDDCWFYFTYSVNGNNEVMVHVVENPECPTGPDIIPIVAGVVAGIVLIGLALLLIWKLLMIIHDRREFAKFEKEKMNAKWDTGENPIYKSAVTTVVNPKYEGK

Take `CC(C)C[C@H](NC(=O)[C@H](CC(=O)O)NC(=O)Cc1ccccc1)C(=O)N[C@@H](Cc1ccccc1)C(=O)N1CCC[C@@H]1C(N)=O` [X L D F p phenylacetyl amide scrambled, N--phenylacetyl--Asp--Leu--Phe--D--Pro--NH2, reference compound] (PhAc-DLF[dP]-NH2): the “binding inhibition (in words)” value at VLA-4 (compared to standard 10-mer / B12) is on record as “no inhibition of VLA-4”. Also, the figures for the “RELATIVE POTENCY (inhibition of VLA-4 binding CS-1)” value at VLA-4 and at VLA-4 (listed as N--phenylacetyl--Asp--Leu--Phe--D--Pro--NH2) were 0 and less than 1, respectively. Further, the “PC400, carbacol dosage to increase SRL 4-fold, 24 hours after challenge” value in the test with asthmatic sheep was “about 12 BU”.

Regarding `CC(C)C[C@H](NC(=O)Cc1ccccc1)C(=O)N[C@@H](CC(=O)O)C(=O)N[C@@H](Cc1ccccc1)C(=O)N1CCC[C@@H]1C(N)=O` [X L D F p phenylacetyl amide, N--phenylacetyl--Leu--Asp--Phe--D--Pro--NH2] (PhAc-LDF[dP]-NH2), at VLA-4, the “VLA-4 binding inhibition, times better than the standard 10-mer peptide of SEQ ID NO:3” value was “about 312 times” and the “RELATIVE POTENCY (inhibition of VLA-4 binding CS-1)” value was found to be 313. Besides, in the test on asthmatic sheep (1 mg/kg nebulized twice a day, versus control peptide), the “change in specific lung resistance (SRL) after challenge (FIG. 7)” value was “less of a change from baseline specific lung resistance”. In addition, the “PC400, carbacol dosage to increase SRL 4-fold, 24 hours after challenge” value with asthmatic sheep is recorded as “about 27 BU”.
